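Following 48 hours of exposure in 96-well plates, responses at five concentrations were used to interpolate endpoints linearly. At the GI50, growth is halved. At the TGI there is no net growth.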
What was measured:
Test in all cases: DTP human tumour cell line panel, 48 h
[1] = system: 786-0 renal
[2] = system: A498 renal
[3] = system: A549 NSCLC
[4] = system: ACHN renal
[5] = system: BT-549 breast
[6] = system: CAKI-1 renal
[7] = system: CCRF-CEM leukemia
[8] = system: COLO 205 colon
[9] = system: DU-145 prostate
[10] = system: EKVX NSCLC
[11] = system: HCC-2998 colon
[12] = system: HCT-116 colon
[13] = system: HCT-15 colon
[14] = system: HL-60(TB) leukemia
[15] = system: HOP-62 NSCLC
[16] = system: HS 578T breast
[17] = system: HT29 colon
[18] = system: IGROV1 ovarian
[19] = system: KM12 colon
[20] = system: LOX IMVI melanoma
[21] = system: M14 melanoma
[22] = system: MALME-3M melanoma
[23] = system: MCF7 breast
[24] = system: MDA-MB-231 breast
[25] = system: MDA-MB-435
[26] = system: MDA-N
[27] = system: MOLT-4 leukemia
[28] = system: NCI-H226 lung
[29] = system: NCI-H23 lung
[30] = system: NCI-H460 lung
[31] = system: NCI-H522 lung
[32] = system: NCI/ADR-RES ovarian
[33] = system: OVCAR-3 ovarian
[34] = system: OVCAR-4 ovarian
[35] = system: OVCAR-5 ovarian
[36] = system: PC-3 prostate
[37] = system: RPMI-8226 leukemia
[38] = system: RXF 393 renal
[39] = system: SF-268 CNS
[40] = system: SF-295 CNS
[41] = system: SF-539 CNS
[42] = system: SK-MEL-2 melanoma
[43] = system: SK-MEL-28 melanoma
[44] = system: SK-MEL-5 melanoma
[45] = system: SK-OV-3 ovarian
[46] = system: SN12C renal
[47] = system: SNB-19 CNS
[48] = system: SNB-75 CNS
[49] = system: SR leukemia
[50] = system: T-47D breast
[51] = system: TK-10 renal
[52] = system: U251 CNS
[53] = system: UACC-257 melanoma
[54] = system: UACC-62 melanoma
[55] = system: UO-31 renal
[56] = system: HOP-92 NSCLC
[57] = system: K-562 leukemia
[58] = system: OVCAR-8 ovarian
[59] = system: SW-620 colon

Compound: N=C1C(=N)c2ccccc2-c2ccccc21
- TGI [1]: 4.46 µM
- TGI [2]: 4.13 µM
- TGI [3]: 3.66 µM
- TGI [4]: 2.72 µM
- TGI [5]: 2.23 µM
- TGI [6]: 3.08 µM
- TGI [7]: > 20 µM
- TGI [8]: 3.24 µM
- TGI [9]: 2.82 µM
- TGI [10]: 3.62 µM
- TGI [11]: 3.47 µM
- TGI [12]: 1.2 µM
- TGI [13]: 2.99 µM
- TGI [14]: 0.658 µM
- TGI [15]: 3.04 µM
- TGI [16]: > 26.1 µM
- TGI [17]: 3.81 µM
- TGI [18]: 3.93 µM
- TGI [19]: 3.4 µM
- TGI [20]: 1.02 µM
- TGI [21]: 2.36 µM
- TGI [22]: 2.57 µM
- TGI [23]: 2.27 µM
- TGI [24]: 1.16 µM
- TGI [25]: 0.4 µM
- TGI [26]: 0.325 µM
- TGI [27]: 1.61 µM
- TGI [28]: 3.57 µM
- TGI [29]: 1.92 µM
- TGI [30]: 2.88 µM
- TGI [31]: 3.99 µM
- TGI [32]: 5 µM
- TGI [33]: 1.41 µM
- TGI [34]: 2.78 µM
- TGI [35]: 3.43 µM
- TGI [36]: 2.88 µM
- GI50 [37]: 1.75 µM
- TGI [37]: > 100 µM
- TGI [38]: 3.23 µM
- TGI [39]: 4.16 µM
- TGI [40]: 2.98 µM
- TGI [41]: 2.02 µM
- TGI [42]: 2.97 µM
- TGI [43]: 3.35 µM
- TGI [44]: 1.53 µM
- TGI [45]: 3.07 µM
- TGI [46]: 2.49 µM
- TGI [47]: 3.01 µM
- TGI [48]: 3.25 µM
- TGI [49]: 6.46 µM
- TGI [50]: 1.57 µM
- TGI [51]: 3.01 µM
- TGI [52]: 2.63 µM
- TGI [53]: 1.46 µM
- TGI [54]: 2.78 µM
- TGI [55]: 2.96 µM

Compound: CC(=O)OCC1OC(O[C@@H]2c3c(O)c4c(c(O)c3C3=C(NN(c5ccc([N+](=O)[O-])cc5[N+](=O)[O-])[Se]3=O)[C@@]2(C)O)C(=O)c2ccccc2C4=O)C(OC(C)=O)C(OC(C)=O)C1OC(C)=O (some centres not stated)
- TGI [1]: 0.296 µM
- TGI [2]: 1.11 µM
- TGI [3]: 2.07 µM
- TGI [4]: 0.607 µM
- TGI [5]: 4.23 µM
- TGI [6]: 0.722 µM
- TGI [7]: 1.08 µM
- TGI [8]: 0.322 µM
- TGI [9]: 1.84 µM
- TGI [10]: 0.677 µM
- TGI [11]: 1.2 µM
- TGI [12]: 0.295 µM
- TGI [13]: 0.873 µM
- TGI [15]: 0.714 µM
- TGI [56]: 2.05 µM
- TGI [16]: 0.927 µM
- TGI [17]: 0.57 µM
- TGI [18]: 1.09 µM
- TGI [57]: 0.431 µM
- TGI [19]: 1.58 µM
- TGI [20]: 0.319 µM
- TGI [21]: 1.6 µM
- TGI [22]: 0.355 µM
- TGI [23]: 0.498 µM
- TGI [24]: 1.48 µM
- TGI [25]: 0.332 µM
- TGI [26]: 0.753 µM
- TGI [27]: 0.23 µM
- TGI [28]: 0.947 µM
- TGI [29]: 0.698 µM
- TGI [30]: 0.72 µM
- TGI [31]: 0.29 µM
- TGI [32]: 3.86 µM
- TGI [33]: 0.336 µM
- TGI [34]: 0.634 µM
- TGI [35]: 2.07 µM
- TGI [58]: 0.562 µM
- TGI [36]: 1.02 µM
- TGI [37]: 0.372 µM
- TGI [38]: 3.81 µM
- TGI [39]: 0.555 µM
- TGI [40]: 1 µM
- TGI [42]: 0.615 µM
- TGI [43]: 1.02 µM
- TGI [44]: 0.42 µM
- TGI [45]: 1.52 µM
- TGI [46]: 0.552 µM
- TGI [48]: 6.24 µM
- TGI [49]: 0.502 µM
- TGI [59]: 0.339 µM
- TGI [50]: 1.46 µM
- TGI [51]: 2.05 µM
- TGI [52]: 0.458 µM
- TGI [53]: 1.49 µM
- TGI [54]: 0.936 µM
- TGI [55]: 0.548 µM

Compound: CC(C)CC1c2[nH]c3ccccc3c2C[C@H]2C(=O)NC(CCC(=O)OC(C)(C)C)C(=O)N12 (some centres not stated)
- TGI [1]: > 100 µM
- TGI [2]: > 100 µM
- TGI [3]: > 100 µM
- TGI [4]: > 100 µM
- TGI [5]: > 100 µM
- TGI [6]: > 100 µM
- TGI [8]: 39.6 µM
- TGI [9]: > 100 µM
- TGI [10]: > 100 µM
- TGI [12]: > 100 µM
- TGI [13]: > 100 µM
- TGI [14]: 55.2 µM
- TGI [15]: 56.2 µM
- TGI [56]: 78.1 µM
- TGI [16]: 54.2 µM
- TGI [17]: 43.1 µM
- TGI [18]: > 100 µM
- TGI [57]: > 100 µM
- TGI [19]: > 100 µM
- TGI [20]: 60.6 µM
- TGI [21]: > 100 µM
- TGI [22]: 62.2 µM
- TGI [23]: > 100 µM
- TGI [24]: 79.1 µM
- TGI [25]: 97.4 µM
- TGI [26]: > 100 µM
- TGI [27]: 72.8 µM
- TGI [28]: > 100 µM
- TGI [29]: > 100 µM
- TGI [31]: 88.1 µM
- TGI [32]: > 100 µM
- TGI [33]: 41.7 µM
- TGI [34]: > 100 µM
- TGI [35]: > 100 µM
- TGI [58]: > 100 µM
- TGI [36]: 69 µM
- TGI [37]: 67.2 µM
- TGI [38]: 72 µM
- TGI [39]: > 100 µM
- TGI [40]: 41.1 µM
- TGI [42]: 43.8 µM
- TGI [43]: > 100 µM
- TGI [44]: 61.7 µM
- TGI [45]: > 100 µM
- TGI [46]: 70.8 µM
- TGI [47]: > 100 µM
- TGI [49]: 65.1 µM
- TGI [59]: > 100 µM
- TGI [50]: 49.7 µM
- TGI [51]: 74 µM
- TGI [52]: > 100 µM
- TGI [53]: 66 µM
- TGI [54]: > 100 µM
- TGI [55]: > 100 µM

Compound: CC(=O)Nc1ccc2c(C)c3c4ccccc4n(C)c3nc2n1
- TGI [1]: 35.3 µM
- TGI [2]: 46.2 µM
- TGI [3]: 59.8 µM
- TGI [4]: 33.1 µM
- TGI [5]: 84.8 µM
- TGI [6]: > 100 µM
- TGI [7]: 80.5 µM
- TGI [8]: 30.9 µM
- TGI [9]: 90.4 µM
- TGI [10]: > 100 µM
- TGI [11]: 30.9 µM
- TGI [12]: 44.6 µM
- TGI [13]: 48.6 µM
- TGI [14]: 41.2 µM
- TGI [15]: 94.8 µM
- TGI [16]: 50.2 µM
- TGI [17]: > 100 µM
- TGI [18]: > 100 µM
- TGI [19]: 40.2 µM
- TGI [20]: 34.2 µM
- TGI [21]: 52.3 µM
- TGI [23]: 96.7 µM
- TGI [24]: 41.2 µM
- TGI [25]: 45.7 µM
- TGI [26]: 34.5 µM
- TGI [27]: 32.1 µM
- TGI [28]: > 100 µM
- TGI [29]: 53.4 µM
- TGI [30]: 15.5 µM
- TGI [31]: 65.6 µM
- TGI [32]: > 100 µM
- TGI [33]: 70.1 µM
- TGI [35]: 51.6 µM
- TGI [58]: > 100 µM
- TGI [36]: > 100 µM
- TGI [38]: 34.6 µM
- TGI [39]: 64.4 µM
- TGI [40]: 53.4 µM
- TGI [41]: 77.6 µM
- TGI [42]: 47.6 µM
- TGI [44]: 21.9 µM
- TGI [46]: 43.3 µM
- TGI [47]: > 100 µM
- TGI [48]: > 100 µM
- TGI [49]: 45.6 µM
- TGI [59]: 46.6 µM
- TGI [50]: > 100 µM
- TGI [51]: 94.8 µM
- TGI [53]: 57.5 µM
- TGI [54]: 69 µM
- TGI [55]: 32.3 µM

Reference: PubChem BioAssay (NCI)
